Laboratory results published in the NIST ThermoML archive (doi:10.1016/j.fluid.2007.08.001).
± gives the expanded uncertainty stated by the source.

Conditions: Liquid; for mass density: 303.15 K, 95.3 kPa, Pycnometric method

| Structure (SMILES) | mass density | also measured |
| --- | --- | --- |
| O=[N+]([O-])c1ccccc1 [nitrobenzene] | 1193.4 ± 1.3 kg/m3 | vapor or sublimation pressure (483.05 K): 95.3 ± 1.9 kPa |
| Clc1ccccc1 [chlorobenzene] | 1095.52 ± 1.1 kg/m3 | vapor or sublimation pressure (402.35 K): 95.3 ± 1.9 kPa |
| CCc1ccccc1 [ethylbenzene] | 858.2 ± 0.86 kg/m3 | vapor or sublimation pressure (406.95 K): 95.3 ± 1.9 kPa |
| Cc1ccccc1 [toluene] | 857.66 ± 0.86 kg/m3 | vapor or sublimation pressure (381.65 K): 95.3 ± 1.9 kPa |
| Brc1ccccc1 [bromobenzene] | 1481.48 ± 1.7 kg/m3 | vapor or sublimation pressure (426.85 K): 95.3 ± 1.9 kPa |
| C[S+](C)[O-] [dimethyl sulfoxide] | 1092.4 ± 1.1 kg/m3 | vapor or sublimation pressure (460.95 K): 95.3 ± 1.9 kPa |
